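Method: 48-hour compound exposure of cells in 96-well plates, five concentrations, linear interpolation of endpoints. Here, GI50 denotes the concentration required for 50% inhibition of growth.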 The source made the active and inactive calls. No stated cut-off is given here; in the data, active = GI50 up to about 1.1 µM and inactive = higher.
Tests used:
Experiment in all cases: inhibition of tumour cell growth, NCI panel, 48 h
786-0 = test system: 786-0
A498 = test system: A498
A549 = test system: A549
ACHN = test system: ACHN
BT-549 = test system: BT-549
CAKI-1 = test system: CAKI-1
COLO 205 = test system: COLO 205
EKVX = test system: EKVX
HCT-116 = test system: HCT-116
HCT-15 = test system: HCT-15
HOP-62 = test system: HOP-62
HOP-92 = test system: HOP-92
HT-29 = test system: HT-29
Hs-578T = test system: Hs-578T
IGROV-1 = test system: IGROV-1
K562 = test system: K562
KM12 = test system: KM12
LOX IMVI = test system: LOX IMVI
M14 = test system: M14
MCF7 = test system: MCF7
MDA-MB-231 = test system: MDA-MB-231
MDA-MB-435 = test system: MDA-MB-435
MDA-N = test system: MDA-N
MOLT-4 = test system: MOLT-4
Malme-3M = test system: Malme-3M
NCI-H226 = test system: NCI-H226
NCI-H23 = test system: NCI-H23
NCI-H460 = test system: NCI-H460
NCI-H522 = test system: NCI-H522
NCI/ADR-RES = test system: NCI/ADR-RES
OVCAR-3 = test system: OVCAR-3
OVCAR-4 = test system: OVCAR-4
OVCAR-5 = test system: OVCAR-5
OVCAR-8 = test system: OVCAR-8
PC-3 = test system: PC-3
RPMI-8226 = test system: RPMI-8226
RXF 393 = test system: RXF 393
SF-268 = test system: SF-268
SF-295 = test system: SF-295
SF-539 = test system: SF-539
SK-MEL-28 = test system: SK-MEL-28
SK-MEL-2 = test system: SK-MEL-2
SK-MEL-5 = test system: SK-MEL-5
SK-OV-3 = test system: SK-OV-3
SN12C = test system: SN12C
SNB-19 = test system: SNB-19
SNB-75 = test system: SNB-75
SR = test system: SR
SW-620 = test system: SW-620
T47D = test system: T47D
TK-10 = test system: TK-10
U-251 = test system: U-251
UACC-257 = test system: UACC-257
UACC-62 = test system: UACC-62
UO-31 = test system: UO-31
CCRF-CEM = test system: CCRF-CEM
DU-145 = test system: DU-145
HCC 2998 = test system: HCC 2998
HL-60 = test system: HL-60

c1ccc(CNCCN2CCNCC2)nc1
GI50 (786-0): > 100 µM (inactive) | GI50 (A498): > 100 µM (inactive) | GI50 (A549): > 100 µM (inactive) | GI50 (ACHN): > 100 µM (inactive) | GI50 (BT-549): > 100 µM (inactive) | GI50 (CAKI-1): > 100 µM (inactive) | GI50 (COLO 205): > 100 µM (inactive) | GI50 (EKVX): > 100 µM (inactive) | GI50 (HCT-116): > 100 µM (inactive) | GI50 (HCT-15): > 100 µM | GI50 (HOP-62): > 100 µM (inactive) | GI50 (HOP-92): > 100 µM (inactive) | GI50 (HT-29): > 100 µM (inactive) | GI50 (Hs-578T): > 100 µM (inactive) | GI50 (IGROV-1): > 100 µM (inactive) | GI50 (K562): > 100 µM (inactive) | GI50 (KM12): > 100 µM (inactive) | GI50 (LOX IMVI): > 100 µM (inactive) | GI50 (M14): > 100 µM (inactive) | GI50 (MCF7): > 100 µM (inactive) | GI50 (MDA-MB-231): > 100 µM (inactive) | GI50 (MDA-MB-435): > 100 µM (inactive) | GI50 (MDA-N): > 100 µM (inactive) | GI50 (MOLT-4): > 100 µM (inactive) | GI50 (Malme-3M): > 100 µM (inactive) | GI50 (NCI-H226): > 100 µM (inactive) | GI50 (NCI-H23): > 100 µM (inactive) | GI50 (NCI-H460): > 100 µM (inactive) | GI50 (NCI-H522): > 100 µM (inactive) | GI50 (NCI/ADR-RES): > 100 µM (inactive) | GI50 (OVCAR-3): > 100 µM (inactive) | GI50 (OVCAR-4): > 100 µM (inactive) | GI50 (OVCAR-5): > 100 µM (inactive) | GI50 (OVCAR-8): > 100 µM (inactive) | GI50 (PC-3): > 100 µM (inactive) | GI50 (RPMI-8226): > 100 µM (inactive) | GI50 (RXF 393): > 100 µM (inactive) | GI50 (SF-268): > 100 µM (inactive) | GI50 (SF-295): > 100 µM (inactive) | GI50 (SF-539): > 100 µM (inactive) | GI50 (SK-MEL-28): > 100 µM (inactive) | GI50 (SK-MEL-2): > 100 µM (inactive) | GI50 (SK-MEL-5): > 100 µM (inactive) | GI50 (SK-OV-3): > 100 µM (inactive) | GI50 (SN12C): > 100 µM (inactive) | GI50 (SNB-19): > 100 µM (inactive) | GI50 (SNB-75): 52 µM (inactive) | GI50 (SR): > 100 µM (inactive) | GI50 (SW-620): > 100 µM (inactive) | GI50 (T47D): > 100 µM (inactive) | GI50 (TK-10): > 100 µM (inactive) | GI50 (U-251): > 100 µM (inactive) | GI50 (UACC-257): > 100 µM (inactive) | GI50 (UACC-62): > 100 µM (inactive) | GI50 (UO-31): > 100 µM (inactive)

O=C(Nc1ccc(F)cc1)c1cc2ccc(O)cc2o/c1=N\c1ccccc1F
GI50 (786-0): 24.4 µM (inactive) | GI50 (A498): 37.6 µM (inactive) | GI50 (ACHN): 20 µM (inactive) | GI50 (BT-549): 14.8 µM (inactive) | GI50 (CAKI-1): 33.5 µM (inactive) | GI50 (CCRF-CEM): 17 µM (inactive) | GI50 (COLO 205): > 100 µM (inactive) | GI50 (DU-145): 34.4 µM (inactive) | GI50 (EKVX): 13.5 µM (inactive) | GI50 (HCC 2998): 33.7 µM (inactive) | GI50 (HCT-116): 24.8 µM (inactive) | GI50 (HCT-15): 18.9 µM | GI50 (HL-60): 18.6 µM (inactive) | GI50 (HOP-62): 11.5 µM (inactive) | GI50 (HT-29): > 100 µM (inactive) | GI50 (Hs-578T): 26.8 µM (inactive) | GI50 (IGROV-1): 10.1 µM (inactive) | GI50 (K562): 11.1 µM (inactive) | GI50 (KM12): 26.2 µM (inactive) | GI50 (LOX IMVI): 19.4 µM (inactive) | GI50 (MCF7): 28.8 µM (inactive) | GI50 (MDA-MB-435): 27.9 µM (inactive) | GI50 (MDA-N): 34.6 µM (inactive) | GI50 (MOLT-4): 26.5 µM (inactive) | GI50 (Malme-3M): 50 µM (inactive) | GI50 (NCI-H23): 1.62 µM (inactive) | GI50 (NCI-H460): 18.8 µM (inactive) | GI50 (NCI-H522): 12.1 µM (inactive) | GI50 (NCI/ADR-RES): 15.6 µM (inactive) | GI50 (OVCAR-3): 27.9 µM (inactive) | GI50 (OVCAR-4): 21.3 µM (inactive) | GI50 (OVCAR-5): 29.1 µM (inactive) | GI50 (OVCAR-8): 13.7 µM (inactive) | GI50 (PC-3): 32.3 µM (inactive) | GI50 (RPMI-8226): 8.04 µM (inactive) | GI50 (SF-268): 29.1 µM (inactive) | GI50 (SF-295): 30.7 µM (inactive) | GI50 (SF-539): 42.7 µM (inactive) | GI50 (SK-MEL-28): 32.1 µM (inactive) | GI50 (SK-MEL-2): 29.3 µM (inactive) | GI50 (SK-MEL-5): 10.7 µM (inactive) | GI50 (SK-OV-3): 12 µM (inactive) | GI50 (SN12C): 51.8 µM (inactive) | GI50 (SR): 36.1 µM (inactive) | GI50 (SW-620): 34.2 µM (inactive) | GI50 (T47D): 14.8 µM (inactive) | GI50 (U-251): 19.9 µM (inactive) | GI50 (UACC-257): 27.6 µM (inactive) | GI50 (UACC-62): 22.6 µM (inactive)

CCCCCCCCCCCCOP(=O)(O)OP(=O)(O)OCC1OC(n2ccc(N)nc2=O)CC1O (stereo unspecified)
GI50 (786-0): > 100 µM (inactive) | GI50 (A498): > 100 µM (inactive) | GI50 (A549): > 100 µM (inactive) | GI50 (ACHN): > 100 µM (inactive) | GI50 (BT-549): > 100 µM (inactive) | GI50 (CAKI-1): > 100 µM (inactive) | GI50 (CCRF-CEM): > 100 µM (inactive) | GI50 (COLO 205): > 100 µM (inactive) | GI50 (EKVX): > 100 µM (inactive) | GI50 (HCC 2998): > 100 µM (inactive) | GI50 (HCT-116): > 100 µM (inactive) | GI50 (HCT-15): > 100 µM | GI50 (HL-60): > 100 µM (inactive) | GI50 (HOP-62): > 100 µM (inactive) | GI50 (HOP-92): > 100 µM (inactive) | GI50 (HT-29): > 100 µM (inactive) | GI50 (Hs-578T): > 100 µM (inactive) | GI50 (IGROV-1): > 100 µM (inactive) | GI50 (K562): > 100 µM (inactive) | GI50 (KM12): > 100 µM (inactive) | GI50 (LOX IMVI): > 100 µM (inactive) | GI50 (M14): > 100 µM (inactive) | GI50 (MCF7): > 100 µM (inactive) | GI50 (MDA-MB-231): > 100 µM (inactive) | GI50 (MDA-MB-435): > 100 µM (inactive) | GI50 (MDA-N): > 100 µM (inactive) | GI50 (MOLT-4): > 100 µM (inactive) | GI50 (Malme-3M): > 100 µM (inactive) | GI50 (NCI-H226): > 100 µM (inactive) | GI50 (NCI-H23): > 100 µM (inactive) | GI50 (NCI-H460): > 100 µM (inactive) | GI50 (NCI-H522): > 100 µM (inactive) | GI50 (NCI/ADR-RES): > 100 µM (inactive) | GI50 (OVCAR-3): > 100 µM (inactive) | GI50 (OVCAR-4): > 100 µM (inactive) | GI50 (OVCAR-5): > 100 µM (inactive) | GI50 (OVCAR-8): > 100 µM (inactive) | GI50 (PC-3): > 100 µM (inactive) | GI50 (RPMI-8226): > 100 µM (inactive) | GI50 (RXF 393): > 100 µM (inactive) | GI50 (SF-268): > 100 µM (inactive) | GI50 (SF-295): > 100 µM (inactive) | GI50 (SF-539): > 100 µM (inactive) | GI50 (SK-MEL-28): > 100 µM (inactive) | GI50 (SK-MEL-2): > 100 µM (inactive) | GI50 (SK-MEL-5): > 100 µM (inactive) | GI50 (SK-OV-3): > 100 µM (inactive) | GI50 (SN12C): > 100 µM (inactive) | GI50 (SNB-19): > 100 µM (inactive) | GI50 (SNB-75): 95.9 µM (inactive) | GI50 (SW-620): > 100 µM (inactive) | GI50 (T47D): 38.3 µM (inactive) | GI50 (TK-10): > 100 µM (inactive) | GI50 (U-251): > 100 µM (inactive) | GI50 (UACC-257): > 100 µM (inactive) | GI50 (UACC-62): > 100 µM (inactive) | GI50 (UO-31): > 100 µM (inactive)

— ChEMBL document CHEMBL1201862, “PubChem BioAssay data set” (2004)
